Results on twelve molecules are retold here after ChEMBL document CHEMBL1201862, “PubChem BioAssay data set” (2004).

Some test systems named below: CAKI-1; HOP-92; HT-29; MDA-MB-231; NCI-H23; OVCAR-4; OVCAR-5; RXF 393; SF-268; SF-295; SK-MEL-28; SN12C; TK-10; UACC-257; CCRF-CEM; NCI-H460; PC-3; SNB-19; UO-31.
What all share (experiment): growth of human tumour cells (NCI), 48 h

Several values for one entry are separate records, joined by “and”; a condition that tells them apart may be missing. Equal entries are not always repeated.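 Cells were grown in 96-well plates and exposed to each compound for 48 hours at five concentrations; endpoints were interpolated linearly between bracketing concentrations, or set to the highest concentration if not reached. GI50 marks 50% less growth.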 Activity calls are given as the source filed them. Cut-off read from the data, not from the text of the source: active = GI50 up to about 1.1 µM and inactive = higher.

As to `Cc1cc2nc3c(C#N)c(-c4ccccc4)cc(Nc4ccc(F)cc4)n3c2cc1C`, the GI50 is 29.9 µM (inactive) with CAKI-1; 5.01 µM (inactive) in the assay with HOP-92; 28.6 µM (inactive) with HT-29; 15.1 µM (inactive) with MDA-MB-231; 13.4 µM (inactive) in the assay with NCI-H23; 53.6 µM (inactive) in the assay on OVCAR-4. Besides, the GI50 in the assay on OVCAR-5 was 15.6 µM (inactive); in the assay with RXF 393, 14.4 µM (inactive); with SF-268 it was 10.5 µM (inactive); with SF-295, 17.6 µM (inactive); with SK-MEL-28 it was 46.2 µM (inactive); in the assay with SN12C, 13.9 µM (inactive). Also, the GI50 was 12.4 µM (inactive) with TK-10 and 7.5 µM (inactive) with UACC-257.
In the case of `C=CCOC(=O)CCCCCCCCCCCCCCCOC(=O)c1c(CCC[C@@H](C)O[Si](C)(C)C(C)(C)C)nc([O-])[n+]2c1CC[C@H]2CC1(CC/C=C\[C@H](CC)O[Si](C(C)C)(C(C)C)C(C)C)OCCO1`, the GI50 in the assay with CAKI-1 is > 100 µM (inactive); with CCRF-CEM it was 14.4 µM (inactive); in the assay with HOP-92, 18.2 µM (inactive); in the assay on MDA-MB-231, 18.6 µM (inactive); in the assay with NCI-H23 it was > 100 µM (inactive); with NCI-H460 it was > 100 µM (inactive). Moreover, the GI50 in the assay with OVCAR-4 was > 100 µM (inactive); in the assay with OVCAR-5, 30.1 µM (inactive); in the assay with PC-3, > 100 µM (inactive); in the assay with SF-268, > 100 µM (inactive); in the assay on SF-295, 48.8 µM (inactive); in the assay with SK-MEL-28 it was > 100 µM (inactive). In addition, the GI50 with SN12C is 34 µM (inactive); in the assay with SNB-19, 80.2 µM (inactive); in the assay on TK-10, > 100 µM (inactive); in the assay with UACC-257 it was > 100 µM (inactive); in the assay on UO-31 it was 28.4 µM (inactive).
Consider `c1ccc2c(c1)c1c(n2CCOCCN2CCCC2)CCCC1`, for which the GI50 was 27.2 µM (inactive) with CAKI-1; 20.9 µM (inactive) in the assay on CCRF-CEM; 27.7 µM (inactive) with HOP-92; 20 µM (inactive) in the assay with HT-29; 16.4 µM (inactive) in the assay on MDA-MB-231; 22.6 µM (inactive) with NCI-H23. The GI50 was 15 µM (inactive) in the assay with NCI-H460; 16.8 µM (inactive) in the assay with OVCAR-4; 17.8 µM (inactive) in the assay on OVCAR-5; 18.6 µM (inactive) in the assay on PC-3; 29 µM (inactive) with SF-268; 37.2 µM (inactive) in the assay on SF-295. Besides, the GI50 is 16 µM (inactive) in the assay on SK-MEL-28; 17.5 µM (inactive) in the assay on SN12C; 19.5 µM (inactive) in the assay with TK-10; 22.4 µM (inactive) in the assay on UACC-257; 12.8 µM (inactive) with UO-31.
On to `COc1cccc(-c2cc(O)c3cc(C)cnc3n2)c1`, for which the GI50 in the assay with CAKI-1 was 0.0389 µM (active); with CCRF-CEM, 0.0366 µM (active); with HT-29 it was 0.0318 µM (active); in the assay with MDA-MB-231, 0.415 µM (active); in the assay on NCI-H23, 0.203 µM (active); in the assay with NCI-H460, 0.0458 µM (active). Also, the GI50 is > 67.1 µM (inactive) in the assay on OVCAR-4; 0.82 µM (active) with OVCAR-5; 0.0467 µM (active) in the assay on PC-3; 0.0211 µM (active) in the assay with RXF 393; 0.594 µM (active) with SF-268; 0.0405 µM (active) with SF-295. In addition, the GI50 with SK-MEL-28 was 0.0787 µM (active); in the assay on SN12C, 0.0538 µM (active); in the assay with SNB-19, 0.0667 µM (active); with UACC-257, > 100 µM (inactive); in the assay with UO-31 it was 1.26 µM (inactive).
As for `CC(=O)NCC1(c2ccccc2)CCN(CC2COc3ccccc3O2)CC1` (centres undefined) [ACOXATRINE], the GI50 is > 100 µM (inactive) with CAKI-1; > 100 µM (inactive) in the assay with CCRF-CEM; 39.4 µM (inactive) in the assay on HT-29; > 100 µM (inactive) in the assay on MDA-MB-231; > 100 µM (inactive) in the assay on NCI-H23; > 100 µM (inactive) in the assay with NCI-H460. Also, the GI50 in the assay on OVCAR-4, in the assay with OVCAR-5, with PC-3, with RXF 393, in the assay on SF-268 and with SF-295 was > 100 µM (inactive) throughout. In addition, the GI50 in the assay with SK-MEL-28, with SN12C, with SNB-19, in the assay with TK-10, with UACC-257 and in the assay on UO-31 was > 100 µM (inactive) in each case.
On to `Cc1ccc2n(c1)cc(-c1ccc(/C=N/NC(=N)N/N=C/c3ccc(-c4cn5cc(C)ccc5[n+]4C)cc3)cc1)[n+]2C`, for which the GI50 with CCRF-CEM is > 100 µM (inactive); in the assay on HT-29, > 100 µM (inactive); with MDA-MB-231 it was > 100 µM (inactive); with NCI-H460, 80.2 µM (inactive); in the assay with OVCAR-4, 26.9 µM (inactive); with OVCAR-5, > 100 µM (inactive). The GI50 in the assay on PC-3 is > 100 µM (inactive); in the assay with SF-268 it was 21.4 µM (inactive); in the assay on SF-295, > 100 µM (inactive); in the assay with SK-MEL-28, 19.5 µM (inactive); in the assay with SN12C it was > 100 µM (inactive); with SNB-19, > 100 µM (inactive). In addition, the GI50 in the assay on TK-10 is > 100 µM (inactive); in the assay on UACC-257, 50.6 µM (inactive); with UO-31, 25.6 µM (inactive).
With `CN(C)c1c(C2CC(O)C(CO)O2)c(=O)c1=O` (centres undefined), the GI50 in the assay with HOP-92, with HT-29, in the assay on MDA-MB-231, in the assay on NCI-H460, in the assay on OVCAR-4 and with OVCAR-5 was > 100 µM (inactive) in each case. Also, the GI50 in the assay with PC-3, in the assay on SF-268, in the assay with SF-295, with SK-MEL-28, with SN12C and with SNB-19 was > 100 µM (inactive) in each case. For the same molecule, the GI50 with TK-10, with UACC-257 and with UO-31 was > 100 µM (inactive) in each case.
`CC(=O)OCC1OC(SC2=NC(=O)CS2)C(OC(C)=O)C(OC(C)=O)C1OC(C)=O` (centres undefined): the GI50 in the assay on CAKI-1 was 68.7 µM (inactive); in the assay with CCRF-CEM, 31.5 µM (inactive) and 32.3 µM (inactive); in the assay with HT-29, > 100 µM (inactive); in the assay with MDA-MB-231, > 100 µM (inactive); in the assay on NCI-H23, > 100 µM (inactive); in the assay on NCI-H460, > 100 µM (inactive). Also, the GI50 is > 100 µM (inactive) in the assay with OVCAR-5; 84.1 µM (inactive) and 95.5 µM (inactive) in the assay on PC-3; > 100 µM (inactive) in the assay with RXF 393; > 100 µM (inactive) in the assay on SF-268; > 100 µM (inactive) in the assay on SF-295; > 100 µM (inactive) with SK-MEL-28. In addition, the GI50 was > 100 µM (inactive) with SN12C; > 100 µM (inactive) in the assay on SNB-19; 53.7 µM (inactive) with TK-10; > 100 µM (inactive) in the assay with UACC-257; > 100 µM (inactive) in the assay with UO-31.
Turning to `CCOC(=O)C1Oc2ccc([N+](=O)[O-])c3c2C1(O)CCC3` (centres undefined), the GI50 in the assay on CCRF-CEM was > 100 µM (inactive); in the assay with HOP-92 it was > 100 µM (inactive); with HT-29 it was > 100 µM (inactive); with NCI-H23 it was > 100 µM (inactive); with NCI-H460 it was 33.4 µM (inactive); in the assay with OVCAR-4 it was > 100 µM (inactive). For the same molecule, the GI50 with OVCAR-5, in the assay with RXF 393, in the assay with SF-268, in the assay with SF-295, in the assay with SK-MEL-28 and with SN12C was > 100 µM (inactive) each time. Moreover, the GI50 is > 100 µM (inactive) with SNB-19, > 100 µM (inactive) with TK-10, > 100 µM (inactive) in the assay on UACC-257 and 47.2 µM (inactive) in the assay on UO-31.
On to `N#C[C@@]12CCCC(=O)[C@@H]1[C@H]1CCC[C@H]12`, for which the GI50 in the assay on CAKI-1 is 16.3 µM (inactive); in the assay on CCRF-CEM, 16.6 µM (inactive); with HOP-92, 11.5 µM (inactive); in the assay with HT-29, 19.7 µM (inactive); with MDA-MB-231, 14.6 µM (inactive); in the assay with NCI-H23 it was 16.1 µM (inactive). Further, the GI50 is 16.6 µM (inactive) with NCI-H460; 21.3 µM (inactive) in the assay on OVCAR-4; 9.46 µM (inactive) in the assay on OVCAR-5; 13.9 µM (inactive) in the assay with PC-3; 24.7 µM (inactive) in the assay on SF-295; 17.7 µM (inactive) in the assay on SK-MEL-28. Also, the GI50 in the assay on SN12C was 16.4 µM (inactive); with SNB-19, 21.7 µM (inactive); in the assay on TK-10, 19.9 µM (inactive); with UACC-257, 20.2 µM (inactive); in the assay on UO-31, 16.1 µM (inactive).
With `Cc1ccc(/N=N/C(=N/NC(=O)c2cc(Cl)ccc2O)c2ccc(N(CCC#N)CCC#N)cc2C)cc1`, the GI50 in the assay on CAKI-1 is 41.4 µM (inactive); in the assay with CCRF-CEM, 26 µM (inactive); in the assay with HT-29, 14.6 µM (inactive); in the assay with MDA-MB-231, 25.3 µM (inactive); in the assay on NCI-H23, 18.6 µM (inactive); in the assay with NCI-H460, 21.8 µM (inactive). The GI50 in the assay on OVCAR-4 is 23.8 µM (inactive); with OVCAR-5, 41.5 µM (inactive); in the assay with PC-3, 24.3 µM (inactive); with RXF 393, 18.2 µM (inactive); in the assay with SF-268, 25.1 µM (inactive); with SF-295, 21.3 µM (inactive). For the same molecule, the GI50 in the assay on SN12C was 28.4 µM (inactive); with SNB-19, 25.5 µM (inactive); with TK-10, 21.2 µM (inactive); in the assay on UACC-257, 13.2 µM (inactive); in the assay with UO-31 it was 24.8 µM (inactive).
Regarding `N#Cc1c2c(c(Nc3cccc(C(F)(F)F)c3)n3c1nc1ccccc13)CCC2`, the GI50 in the assay on CAKI-1 was > 100 µM (inactive); with HOP-92 it was 6.5 µM (inactive); in the assay with HT-29 it was > 100 µM (inactive); with MDA-MB-231 it was > 100 µM (inactive); in the assay with NCI-H23, > 100 µM (inactive); in the assay on OVCAR-4 it was > 100 µM (inactive). Besides, the GI50 with OVCAR-5, with RXF 393, in the assay with SF-268, with SF-295, with SK-MEL-28 and in the assay with SN12C was > 100 µM (inactive) throughout. Also, the GI50 in the assay on TK-10 and in the assay on UACC-257 was > 100 µM (inactive) each time.
